In patent US20120058057A1, “Anti-dandruff Agents” (MERCK PATENT GMBH, priority 2009, published 2012):

Assays:
Malassezia furfur = assay: Challenge test (Ph.Eur. 5.1.3), germ count over time, Malassezia furfur; type: cell-based; settings: for total number of microorganisms (linear scale) / total number of microorganisms (log-scale): 1.0% in water
Method: The challenge testing procedure consists in challenging a non-contaminated antimicrobial product according to the invention with a prescribed inoculum of suitable microorganisms and storing the inoculated product at a prescribed temperature, e.g. room temperature. The number of organisms surviving in the test products is determined at specified intervals of time.
According to the description given in the European pharmacopea (Ph.Eur.5 Ausgabe, Grundwerk 2005, §5.1.3), the challenge tests are done following the procedure given thereafter.
Production of the Inoculum
A fresh stock culture of the specific micro-organsisms is inoculated on the surface of Agar medium B for bacteria and on the surface of Agar medium C for fungi. The bacteria culture will be incubated until sufficient sporulation (18-24h at 30-35° C.) In order to harvest the bacteria, the surface of the Agar media is washed out with a sterile solution containing sodium chloride (9 g/l) and poured into an adequate vessel. The concentration of germs in the suspension will be adjusted with the same solution to a concentration closed to 10^8 micro-organism/ml. Immediately after that action, a sample of this suspension is taken and the germ concentration in CFU/ml will be measured thanks to the method of membran filtration or counting on Agar plate. This value serves determining the value of the inoculum. The suspension must be used immediately.
Method of Determination of Germ Count
In order to determine the number of micro-organisms in the inoculated preparation (containing also the antimicrobial product according to invention), the same Agar medium as for the preparation of the inoculum will be used.
The aqueous suspension/solution containing 1% of the used ionic liquids (=verum) is inoculated with a suspension of the tests micro-organisms (Malassezia furfur) in such a way that a concentration from 10^5 to 10^6 microorganism/ml of the preparation is reached. The inoculated volume should not be above 1% v/v of the overall test solution. The suspension will be mixed in order to get a good homogenisation.
Water alone (=placebo) is treated in the same way. Antifungicidial activity of the verum will be detected once the survival rate of a microorganism for the verum is significantely lower than for the placebo.
The inoculated preparation is stored away from the daylight at 20-25° C. In order to begin the test, 1 g or 1 ml samples from the tests preparation (containing the inoculated micro-organsisms and the antimicrobial product according to the invention) will be taken at different intervals of time (in our case , 0.2 min, 5 min, 30 min, 1 h, 3 h, 6 h, 24 h) and the number of microorganisms will be measured using the Agar plate or the membrane filtration method. It is important to make sure that any remaining antimicrobial activity to be eliminated by dilution, filtration or specific inactivation.

[1] = test system: Staphylococcus epidermidis; assay: Challenge test (Ph.Eur. 5.1.3), germ count over time, Staphylococcus epidermidis; type: cell-based; settings: 1.0% in water
[2] = Malassezia furfur, incubation 0 h
[3] = Malassezia furfur, incubation 1 h
[4] = Malassezia furfur, incubation 3 h
[5] = Malassezia furfur, incubation 6 h
[6] = Malassezia furfur, incubation 24 h

CC[N+](C)(C)CCOC [compound 1136, N-ethyl-N,N-dimethyl-2-methoxyethylammonium propionate]
antifungicidial / microbicidal activity against Malassezia furfur (in words) (Malassezia furfur; Malassezia furfur): unique antifungicidial activity | total number of microorganisms (linear scale) (Malassezia furfur; [2]): 45000 | total number of microorganisms (log-scale) (Malassezia furfur; [2]): 4.7 | total number of microorganisms (linear scale) (Malassezia furfur; [3]): 41000 | total number of microorganisms (log-scale) (Malassezia furfur; [3]): 4.6 | total number of microorganisms (linear scale) (Malassezia furfur; [4]): 36000 | total number of microorganisms (log-scale) (Malassezia furfur; [4]): 4.6 | total number of microorganisms (linear scale) (Malassezia furfur; [5]): 33000 | total number of microorganisms (log-scale) (Malassezia furfur; [5]): 4.5 | total number of microorganisms (linear scale) (Malassezia furfur; [6]): 100 | total number of microorganisms (log-scale) (Malassezia furfur; [6]): 2.0 | selectivity of growth inhibition: Malassezia furfur versus desired skin microorganisms (e.g. Staphylococcus epidermidis) (Malassezia furfur; in words): selectively inhibit the growth of the undesired microorganism Malassezia furfur | total number of microorganisms (linear scale) ([1]; incubation 0 h): 210000 | total number of microorganisms (log-scale) ([1]; incubation 0 h): 5.3 | total number of microorganisms (linear scale) ([1]; incubation 1 h): 160000 | total number of microorganisms (log-scale) ([1]; incubation 1 h): 5.2 | total number of microorganisms (linear scale) ([1]; incubation 3 h): 180000 | total number of microorganisms (log-scale) ([1]; incubation 3 h): 5.3 | total number of microorganisms (linear scale) ([1]; incubation 6 h): 170000 | total number of microorganisms (log-scale) ([1]; incubation 6 h): 5.2 | total number of microorganisms (linear scale) ([1]; incubation 24 h): 22000 | total number of microorganisms (log-scale) ([1]; incubation 24 h): 4.3
